Each structure is given as a SMILES string.

One assay has as its system ovariectomized mice administered with 17β-estradiol (increase in uterine weight). Nature of the assay: Anti-estrogenic activity (oral administration): inhibition of estradiol-induced increase in uterine weight. The conditions noted are these: 10 mg/kg p.o. once a day for 3 days, suspended in 5% arabic gum; ovariectomized ICR mice given 17β-estradiolbenzoate 0.1 μg/mouse s.c. for 3 days; uteri weighed 24 hours after last administration. In kind it is in vivo. Here is the method:
Test compounds were assayed for their oral anti-estrogenic activity in the following manner. In this experiment, the compounds prepared in Examples mentioned above were used as test compounds. As control compounds, the following two were used: a compound described in Example 7 of WO98/25916 and a compound corresponding to general formula (1) of the present invention, provided that R1 was a methyl group, i.e., 10-[(3RS,4RS)-7-hydroxy-3-(4-hydroxyphenyl)-3-methylthiochroman-4-yl]-2-(4,4,5,5,5-pentafluoropentyl)decanoic acid, which had been synthesized according to Reaction Schemes 1 to 7 mentioned above.
In this experiment, each of the test and control compounds was suspended in 5% arabic gum solution and orally administered for 3 days on a once-a-day basis. After 24 hours from the last administration, the test animals were sacrificed and the uteri were removed and weighed.
As to `CCC[C@@]1(c2ccc(O)cc2)CSc2cc(O)ccc2[C@@H]1CCCCCCCCCC(CCCC(F)(F)C(F)(F)F)C(=O)O` (mixture of isomers) [Example 38, 11-[(3RS,4RS)-7-hydroxy-3-(4-hydroxyphenyl)-3-propylthiochroman-4-yl]-2-(4,4,5,5,5,-pentafluoropentyl)undecanoic acid], the “Inhibition (%) of the increase in uterine weight” value turned out to be 84%.

The assay is the same for the next values; noted with them: po; 10 mg/kg p.o. once a day for 3 days, suspended in 5% arabic gum; ovariectomized ICR mice given 17β-estradiolbenzoate 0.1 μg/mouse s.c. for 3 days; uteri weighed 24 hours after last administration.
As usually defined, the inhibition in vivo is the relative decrease from the control value, in per cent. A lower inhibition in vivo goes with a weak effect. `CCC[C@@]1(c2ccc(O)cc2)COc2cc(O)ccc2[C@@H]1CCCCCCCCC(CCCCC(F)(F)C(F)(F)F)C(=O)O` (mixture of isomers) [Example 40, 10-[(3RS,4RS)-7-hydroxy-3-(4-hydroxyphenyl)-3-propylchroman-4-yl]-2-(5,5,6,6,6-pentafluorohexyl)decanoic acid] showed an inhibition in vivo at 10 mg/kg of 82%.
Still for that read-out and setting: under `CC[C@@]1(c2ccc(O)cc2)COc2cc(O)ccc2[C@@H]1CCCCCCCCCC(CCCC(F)(F)C(F)(F)C(F)(F)C(F)(F)F)C(=O)O` (mixture of isomers) [Example 35, 11-[(3RS,4RS)-3-ethyl-7-hydroxy-3-(4-hydroxyphenyl)chroman-4-yl]-2-(4,4,5,5,6,6,7,7,7-nonafluoroheptyl)undecanoic acid] stands 93%; under `CCC[C@@]1(c2ccc(O)cc2)COc2cc(O)ccc2[C@@H]1CCCCCCCCCC(CCC(F)(F)C(F)(F)C(F)(F)C(F)(F)F)C(=O)O` (mixture of isomers) [Example 45, 11-[(3RS,4RS)-7-hydroxy-3-(4-hydroxyphenyl)-3-propylchroman-4-yl]-2-(3,3,4,4,5,5,6,6,6-nonafluorohexyl)undecanoic acid], 85%.
The same measure, in the same setting: for `CC[C@]1(c2ccc(O)cc2)CSc2cc(O)ccc2[C@H]1CCCCCCCCC(CCCCC(F)(F)C(F)(F)F)C(=O)O` (mixture of isomers) [Example 15, 10-[(3RS,4RS)-3-ethyl-7-hydroxy-3-(4-hydroxyphenyl)thiochroman-4-yl]-2-(5,5,6,6,6-pentafluorohexyl)decanoic acid] the value was 92%.
On the same count and under the same terms, for `CCCC[C@@]1(c2ccc(O)cc2)COc2cc(O)ccc2[C@@H]1CCCCCCCCC(CCCC(F)(F)C(F)(F)C(F)(F)C(F)(F)F)C(=O)O` (mixture of isomers) [Example 47, 10-[(3RS,4RS)-3-butyl-7-hydroxy-3-(4-hydroxyphenyl)chroman-4-yl]-2-(4,4,5,5,6,6,7,7,7-nonafluoroheptyl)decanoic acid] the value was 89%; for `CCC[C@@]1(c2ccc(O)cc2)COc2cc(O)ccc2[C@@H]1CCCCCCCCCC(CCCC(F)(F)C(F)(F)C(F)(F)C(F)(F)F)C(=O)O` (mixture of isomers) [Example 46, 11-[(3RS,4RS)-7-hydroxy-3-(4-hydroxyphenyl)-3-propylchroman-4-yl]-2-(4,4,5,5,6,6,7,7,7-nonafluoroheptyl)undecanoic acid], 94%.
Compound `CC[C@@]1(c2ccc(O)cc2)CSc2cc(O)ccc2[C@@H]1CCCCCCCCCC(CCC(F)(F)C(F)(F)C(F)(F)C(F)(F)F)C(=O)O` (mixture of isomers) [Example 30, 11-[(3RS,4RS)-3-ethyl-7-hydroxy-3-(4-hydroxyphenyl)thiochroman-4-yl]-2-(3,3,4,4,5,5,6,6,6-nonafluorohexyl)undecanoic acid] yielded an inhibition in vivo at 10 mg/kg of 89%.
Still for that read-out and setting: for `C[C@@]1(c2ccc(O)cc2)CSc2cc(O)ccc2[C@@H]1CCCCCCCCC(CCCC(F)(F)C(F)(F)F)C(=O)O` (mixture of isomers) [10-[(3RS,4RS)-7-hydroxy-3-(4-hydroxyphenyl)-3-methylthiochroman-4-yl]-2-(4,4,5,5,5-pentafluoropentyl)decanoic acid, reference compound] the value was 75%.
Still for that read-out and setting: for `CC[C@@]1(c2ccc(O)cc2)COc2cc(O)ccc2[C@@H]1CCCCCCCCC(CCCC(F)(F)C(F)(F)C(F)(F)C(F)(F)F)C(=O)O` (mixture of isomers) [Example 34, 10-[(3RS,4RS)-3-ethyl-7-hydroxy-3-(4-hydroxyphenyl)chroman-4-yl]-2-(4,4,5,5,6,6,7,7,7-nonafluoroheptyl)decanoic acid] the value was 90%; for `CCC[C@@]1(c2ccc(O)cc2)CSc2cc(O)ccc2[C@@H]1CCCCCCCCC(CCCCC(F)(F)C(F)(F)F)C(=O)O` (mixture of isomers) [Example 36, 10-[(3RS,4RS)-7-hydroxy-3-(4-hydroxyphenyl)-3-propylthiochroman-4-yl]-2-(5,5,6,6,6-pentafluorohexyl)decanoic acid], 89%.
Same read-out and setting: for `CC[C@@]1(c2ccc(O)cc2)CSc2cc(O)ccc2[C@@H]1CCCCCCCCC(CCC(F)(F)C(F)(F)C(F)(F)C(F)(F)F)C(=O)O` (mixture of isomers) [Example 31, 10-[(3RS,4RS)-3-ethyl-7-hydroxy-3-(4-hydroxyphenyl)thiochroman-4-yl]-2-(3,3,4,4,5,5,6,6,6-nonafluorohexyl)decanoic acid] the value was 85%; for `CCC[C@@]1(c2ccc(O)cc2)COc2cc(O)ccc2[C@@H]1CCCCCCCCC(CCCC(F)(F)C(F)(F)C(F)(F)C(F)(F)F)C(=O)O` (mixture of isomers) [Example 42, 10-[(3RS,4RS)-7-hydroxy-3-(4-hydroxyphenyl)-3-propylchroman-4-yl]-2-(4,4,5,5,6,6,7,7,7-nonafluoroheptyl)decanoic acid], 95%; for `CCC[C@@]1(c2ccc(O)cc2)COc2cc(O)ccc2[C@@H]1CCCCCCCCCC(CCCC(F)(F)C(F)(F)F)C(=O)O` (mixture of isomers) [Example 43, 11-[(3RS,4RS)-7-hydroxy-3-(4-hydroxyphenyl)-3-propylchroman-4-yl]-2-(4,4,5,5,5-pentafluoropentyl)undecanoic acid], 85%.
Take `CCC[C@@]1(c2ccc(O)cc2)CSc2cc(O)ccc2[C@@H]1CCCCCCCCCC(CCC(F)(F)C(F)(F)C(F)(F)C(F)(F)F)C(=O)O` (mixture of isomers) [Example 39, 11-[(3RS,4RS)-7-hydroxy-3-(4-hydroxyphenyl)-3-propylthiochroman-4-yl]-2-(3,3,4,4,5,5,6,6,6-nonafluorohexyl)undecanoic acid]: the inhibition in vivo at 10 mg/kg was found to be 84%.
The same measure, in the same setting: under `CCC[C@@]1(c2ccc(O)cc2)CSc2cc(O)ccc2[C@@H]1CCCCCCCCC(CCCC(F)(F)C(F)(F)F)C(=O)O` (mixture of isomers) [Example 29, 10-[(3RS,4RS)-7-hydroxy-3-(4-hydroxyphenyl)-3-propylthiochroman-4-yl]-2-(4,4,5,5,5-pentafluoropentyl)decanoic acid] stands 91%; under `CC[C@@]1(c2ccc(O)cc2)COc2cc(O)ccc2[C@@H]1CCCCCCCCCC(CCC(F)(F)C(F)(F)C(F)(F)C(F)(F)F)C(=O)O` (mixture of isomers) [Example 32, 11-[(3RS,4RS)-3-ethyl-7-hydroxy-3-(4-hydroxyphenyl)chroman-4-yl]-2-(3,3,4,4,5,5,6,6,6-nonafluorohexyl)undecanoic acid], 82%.
The compound `CC[C@]1(c2ccc(O)cc2)CSc2cc(O)ccc2[C@H]1CCCCCCCCCC(CCCC(F)(F)C(F)(F)F)C(=O)O` (mixture of isomers) [Example 20, 11-[(3RS,4RS)-3-ethyl-7-hydroxy-3-(4-hydroxyphenyl)thiochroman-4-yl]-2-(4,4,5,5,5-pentafluoropentyl)undecanoic acid] yielded an inhibition in vivo at 10 mg/kg of 91%.
Same read-out and setting: under `CC[C@@]1(c2ccc(O)cc2)COc2cc(O)ccc2[C@@H]1CCCCCCCCCC(CCCCCC(F)(F)C(F)(F)F)C(=O)O` (mixture of isomers) [Example 22, 11-[(3RS,4RS)-3-ethyl-7-hydroxy-3-(4-hydroxyphenyl)chroman-4-yl]-2-(6,6,7,7,7-pentafluoroheptyl)undecanoic acid] stands 83%; under `CC[C@]1(c2ccc(O)cc2)CSc2cc(O)ccc2[C@H]1CCCCCCCCC(CCCC(F)(F)C(F)(F)F)C(=O)O` (mixture of isomers) [Example 16, 10-[(3RS,4RS)-3-ethyl-7-hydroxy-3-(4-hydroxyphenyl)thiochroman-4-yl]-2-(4,4,5,5,5-pentafluoropentyl)decanoic acid], 96%.
On the same count and under the same terms, for `CCC[C@@]1(c2ccc(O)cc2)COc2cc(O)ccc2[C@@H]1CCCCCCCCCC(CCCCC(F)(F)C(F)(F)F)C(=O)O` (mixture of isomers) [Example 44, 11-[(3RS,4RS)-7-hydroxy-3-(4-hydroxyphenyl)-3-propylchroman-4-yl]-2-(5,5,6,6,6-pentafluorohexyl)undecanoic acid] the value was 84%; for `CCC[C@@]1(c2ccc(O)cc2)COc2cc(O)ccc2[C@@H]1CCCCCCCCC(CCC(F)(F)C(F)(F)C(F)(F)C(F)(F)F)C(=O)O` (mixture of isomers) [Example 41, 10-[(3RS,4RS)-7-hydroxy-3-(4-hydroxyphenyl)-3-propylchroman-4-yl]-2-(3,3,4,4,5,5,6,6,6-nonafluorohexyl)decanoic acid], 89%; for `CC[C@]1(c2ccc(O)cc2)CSc2cc(O)ccc2[C@H]1CCCCCCCCC(CCCCCC(F)(F)C(F)(F)F)C(=O)O` (mixture of isomers) [Example 14, 10-[(3RS,4RS)-3-ethyl-7-hydroxy-3-(4-hydroxyphenyl)thiochroman-4-yl]-2-(6,6,7,7,7-pentafluoroheptyl)decanoic acid], 81%.
